Assay results taken from ChEMBL document CHEMBL2074183, “Purification of the human apical conjugate export pump MRP2 reconstitution and functional characterization as substrate-stimulated ATPase” (Eur J Biochem, 1999).

Target: ATP-binding cassette sub-family C member 2 (Homo sapiens, UniProt Q92887)
Assay: TP_TRANSPORTER: ATP hydrolysis in MRP2 reconstituted into proteoliposome
Type: functional, subcellular

Sequence of ATP-binding cassette sub-family C member 2 (Q92887 whole entry): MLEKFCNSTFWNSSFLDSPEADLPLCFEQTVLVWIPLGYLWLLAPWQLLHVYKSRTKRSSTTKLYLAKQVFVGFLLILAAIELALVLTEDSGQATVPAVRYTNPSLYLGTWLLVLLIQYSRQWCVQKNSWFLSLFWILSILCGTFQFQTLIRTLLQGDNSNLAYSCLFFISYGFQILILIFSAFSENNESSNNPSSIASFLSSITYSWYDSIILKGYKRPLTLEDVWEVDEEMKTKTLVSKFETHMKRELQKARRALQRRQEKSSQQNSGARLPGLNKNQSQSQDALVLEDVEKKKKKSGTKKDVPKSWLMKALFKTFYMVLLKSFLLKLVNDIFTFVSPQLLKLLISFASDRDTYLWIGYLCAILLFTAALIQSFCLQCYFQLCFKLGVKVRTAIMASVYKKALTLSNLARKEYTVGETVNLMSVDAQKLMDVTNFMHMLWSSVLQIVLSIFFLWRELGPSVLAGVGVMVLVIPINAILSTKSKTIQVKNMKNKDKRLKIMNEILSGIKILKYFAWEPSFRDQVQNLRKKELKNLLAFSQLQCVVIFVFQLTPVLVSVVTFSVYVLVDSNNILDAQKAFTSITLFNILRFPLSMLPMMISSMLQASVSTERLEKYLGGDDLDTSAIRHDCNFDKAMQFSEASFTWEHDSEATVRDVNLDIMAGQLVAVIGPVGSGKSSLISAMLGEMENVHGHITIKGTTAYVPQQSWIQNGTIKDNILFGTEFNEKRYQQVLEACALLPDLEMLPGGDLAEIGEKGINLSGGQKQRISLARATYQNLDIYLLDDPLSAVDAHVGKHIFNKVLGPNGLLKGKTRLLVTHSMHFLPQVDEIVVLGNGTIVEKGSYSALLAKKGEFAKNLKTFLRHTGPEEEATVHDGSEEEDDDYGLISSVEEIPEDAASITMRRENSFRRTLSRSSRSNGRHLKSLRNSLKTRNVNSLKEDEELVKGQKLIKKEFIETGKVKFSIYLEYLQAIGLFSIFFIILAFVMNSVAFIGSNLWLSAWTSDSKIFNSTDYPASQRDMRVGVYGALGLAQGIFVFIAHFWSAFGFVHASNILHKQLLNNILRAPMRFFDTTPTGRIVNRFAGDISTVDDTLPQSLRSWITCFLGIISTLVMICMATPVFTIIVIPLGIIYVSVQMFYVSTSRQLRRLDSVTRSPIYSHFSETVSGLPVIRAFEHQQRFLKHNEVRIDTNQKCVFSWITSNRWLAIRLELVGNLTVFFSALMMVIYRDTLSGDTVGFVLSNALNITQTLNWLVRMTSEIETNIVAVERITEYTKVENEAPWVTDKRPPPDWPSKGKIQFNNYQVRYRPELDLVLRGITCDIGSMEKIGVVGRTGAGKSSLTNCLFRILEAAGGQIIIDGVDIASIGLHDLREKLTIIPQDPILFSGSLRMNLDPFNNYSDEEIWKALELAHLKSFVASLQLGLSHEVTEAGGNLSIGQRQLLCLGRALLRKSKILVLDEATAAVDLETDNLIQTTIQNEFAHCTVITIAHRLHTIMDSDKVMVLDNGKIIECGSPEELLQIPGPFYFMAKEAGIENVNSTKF

Row | Activity | Compound
1 | substrate [+] | CCCCCCCCCCSC[C@H](NC(=O)CC[C@H](N)C(=O)O)C(=O)NCC(=O)O
2 | substrate [+] | N[C@@H](CCC(=O)N[C@@H](CS)C(=O)NCC(=O)O)C(=O)O [GLUTATHIONE]
